From patent US20090176817A1, “Method of Treatment of Diarrhea-Predominant Irritable Bowel Syndrome in a Subject” (priority 2005, published 2009)

System: diarrhea-predominant IBS subjects
Assay: Study S241.3.011: weekly diary questions on adequate relief
Type: in vivo, human
Settings: for Number of months a subject was a responder: Zero months (IBS symptoms) / Overall responder rate, adequate relief of IBS symptoms / Overall responder rate, adequate relief of abdominal pain/discomfort / Overall responder rate, adequate relief of abnormal bowel habits / Number of months a subject was a responder: One month (Abdominal pain/discomfort) / Number of months a subject was a responder: One month (Abnormal bowel habits) / Number of months a subject was a responder: One month (IBS symptoms) / Number of months a subject was a responder: Three months (Abdominal pain/discomfort) / Number of months a subject was a responder: Three months (Abnormal bowel habits) / Number of months a subject was a responder: Three months (IBS symptoms) / Number of months a subject was a responder: Two months (Abdominal pain/discomfort) / Number of months a subject was a responder: Two months (Abnormal bowel habits) / Number of months a subject was a responder: Two months (IBS symptoms) / Number of months a subject was a responder: Zero months (Abdominal pain/discomfort) / Number of months a subject was a responder: Zero months (Abnormal bowel habits): three-month treatment period; for Number of months a subject was a responder: Zero months (IBS symptoms) / Number of months a subject was a responder: One month (Abdominal pain/discomfort) / Number of months a subject was a responder: One month (Abnormal bowel habits) / Number of months a subject was a responder: One month (IBS symptoms) / Number of months a subject was a responder: Three months (Abdominal pain/discomfort) / Number of months a subject was a responder: Three months (Abnormal bowel habits) / Number of months a subject was a responder: Three months (IBS symptoms) / Number of months a subject was a responder: Two months (Abdominal pain/discomfort) / Number of months a subject was a responder: Two months (Abnormal bowel habits) / Number of months a subject was a responder: Two months (IBS symptoms) / Number of months a subject was a responder: Zero months (Abdominal pain/discomfort) / Number of months a subject was a responder: Zero months (Abnormal bowel habits): monthly LOCF; for Overall responder rate, adequate relief of IBS symptoms / Overall responder rate, adequate relief of abdominal pain/discomfort / Overall responder rate, adequate relief of abnormal bowel habits: observed case
Protocol: Study S241.3.011 was a Phase III, double-blind, placebo-controlled, randomized, multinational study to investigate the safety and efficacy of 2 mg TID of cilansetron for a period of 12 weeks followed by a rerandomized, placebo-controlled four-week treatment period, in diarrhea-predominant IBS subjects. The study was conducted in six countries including the US. A total of 2115 subjects consented to participate, and 770 subjects were randomized. A total of 746 subjects were analyzed for efficacy and 755 subjects were analyzed for safety. Diagnosis and main criteria for inclusion were IBS subjects satisfying the Rome I criteria (1992); the diarrhea predominant sub-population of the Rome II criteria; and a minimum abdominal pain/discomfort, stool frequency and consistency determined during the run-in period. Subjects were treated with cilansetron 2 mg tablets given orally TID or matching placebo tablets given orally TID for 12 weeks followed by a rerandomized, placebo-controlled four-week treatment period.
The primary efficacy parameter was the number of months that a subject was a responder for IBS symptoms (abdominal pain, abdominal discomfort, abnormal bowel habits) over the 12-week treatment period. A responder for a month (monthly responder) was defined as a subject who answered the weekly question with “yes” at least twice for that month. The two main secondary efficacy parameters were the monthly responder rates based on the “adequate relief” questions regarding abdominal pain/discomfort and abnormal bowel habits during the 12-week treatment period. The overall response rate and responder rate for the weekly diary questions on adequate relief at each month and all months, the adequate relief rate, the number of subjects with adequate relief by week, daily diary questions, IBS-QOL scores, and the interruption of activities were also assessed. Safety was evaluated by physical examination, ECG, vital signs, laboratory evaluations, concomitant medications, and AEs.
Subjects who were initially randomized to the cilansetron 2 mg TID group and rerandomized to placebo, will be referred to as the C/P treatment group; subjects initially randomized to the placebo group and rerandomized to placebo will be referred to as the P/P treatment group; the P/C and C/C treatment group nomenclature follow the same principle. Of the 591 subjects who completed the three-month treatment period, 576 subjects were rerandomized and thus divided into the following treatment groups: 150 subjects in the C/C treatment group, 140 subjects in the C/P treatment group, 136 subjects in the P/C treatment group, and 150 subjects in the P/P treatment group. Of the 576 subjects rerandomized, a higher percentage of subjects in the C/C treatment group (99%) completed the study compared with the C/P (95%), P/C (93%), and the P/P (95%) treatment groups.
Studies S24 1.3.OO6, S24 1.3.0 1 1, and S24 1.3.009 used the following efficacy measurements: • The subjects answered the following three questions with “yes” or “no” using a phone diary at the end of each week: • a) During the last week, did you experience adequate relief of your IBS symptoms, such as abdominal pain, abdominal discomfort, abnormal bowel habits? • b) During the last week, did you experience adequate relief of your abdominal pain and/or discomfort? • c) During the last week, did you experience adequate relief of your abnormal bowel habits? • The subjects rated the following symptoms using the phone diary at the end of each day: • abdominal pain/discomfort (five-point scale); • stool consistency (seven-point Bristol Stool Scale); • stool frequency (number of bowel movements each day); • urgency (five-point scale); • straining (yes or no); • feeling of incomplete defecation (yes or no); • bloating or feeling of abdominal distension (five-point scale). • In Studies S241 A006 and S241.3.009, subjects completed the IBS-QOL Survey at Baseline (Day 1) and at the end of treatment. […]

[1] = Baseline BMI: <30 kg/m^2, ITT, 2 mg TID
[2] = Baseline BMI: ≧30 kg/m^2, ITT, 2 mg TID
[3] = Baseline severity of IBS: non-severe, ITT, 2 mg TID
[4] = Baseline severity of IBS: severe, ITT, 2 mg TID
[5] = Duration of IBS: >24 months to ≦48 months, 2 mg TID, monthly LOCF imputation, ITT

Cc1nccn1C[C@H]1CCc2c(c3cccc4c3n2CCC4)C1=O [Cilansetron, (R)-(−)-4,5,6,8,9,10-hexahydro-10-[(2-methyl-1H-imidazol-1-yl)methyl]-11H-pyrido-[3,2,1-jk]-carbazol-11-one]
Number of months a subject was a responder: Zero months (IBS symptoms) [1]: 73 (27) n (%) | Overall responder rate, adequate relief of IBS symptoms [1]: 148 (56) n (%) | Overall responder rate, adequate relief of abdominal pain/discomfort [1]: 158 (59) n (%) | Overall responder rate, adequate relief of abnormal bowel habits [1]: 150 (56) n (%) | Number of months a subject was a responder: One month (Abdominal pain/discomfort) [2]: 15 (14) n (%) | Number of months a subject was a responder: One month (Abnormal bowel habits) [2]: 17 (15) n (%) | Number of months a subject was a responder: One month (IBS symptoms) [2]: 16 (14) n (%) | Number of months a subject was a responder: Three months (Abdominal pain/discomfort) [2]: 46 (41) n (%) | Number of months a subject was a responder: Three months (Abnormal bowel habits) [2]: 45 (41) n (%) | Number of months a subject was a responder: Three months (IBS symptoms) [2]: 41 (37) n (%) | Number of months a subject was a responder: Two months (Abdominal pain/discomfort) [2]: 22 (20) n (%) | Number of months a subject was a responder: Two months (Abnormal bowel habits) [2]: 15 (14) n (%) | Number of months a subject was a responder: Two months (IBS symptoms) [2]: 22 (20) n (%) | Number of months a subject was a responder: Zero months (Abdominal pain/discomfort) [2]: 28 (25) n (%) | Number of months a subject was a responder: Zero months (Abnormal bowel habits) [2]: 34 (31) n (%) | Number of months a subject was a responder: Zero months (IBS symptoms) [2]: 32 (29) n (%) | Overall responder rate, adequate relief of IBS symptoms [2]: 58 (52) n (%) | Overall responder rate, adequate relief of abdominal pain/discomfort [2]: 63 (57) n (%) | Overall responder rate, adequate relief of abnormal bowel habits [2]: 53 (48) n (%) | Number of months a subject was a responder: One month (Abdominal pain/discomfort) [3]: 25 (11) n (%) | Number of months a subject was a responder: One month (Abnormal bowel habits) [3]: 26 (12) n (%) | Number of months a subject was a responder: One month (IBS symptoms) [3]: 29 (13) n (%) | Number of months a subject was a responder: Three months (Abdominal pain/discomfort) [3]: 97 (44) n (%) | Number of months a subject was a responder: Three months (Abnormal bowel habits) [3]: 88 (40) n (%) | Number of months a subject was a responder: Three months (IBS symptoms) [3]: 92 (41) n (%) | Number of months a subject was a responder: Two months (Abdominal pain/discomfort) [3]: 40 (18) n (%) | Number of months a subject was a responder: Two months (Abnormal bowel habits) [3]: 40 (18) n (%) | Number of months a subject was a responder: Two months (IBS symptoms) [3]: 39 (18) n (%) | Number of months a subject was a responder: Zero months (Abdominal pain/discomfort) [3]: 60 (27) n (%) | Number of months a subject was a responder: Zero months (Abnormal bowel habits) [3]: 68 (31) n (%) | Number of months a subject was a responder: Zero months (IBS symptoms) [3]: 62 (28) n (%) | Overall responder rate, adequate relief of IBS symptoms [3]: 124 (56) n (%) | Overall responder rate, adequate relief of abdominal pain/discomfort [3]: 131 (59) n (%) | Overall responder rate, adequate relief of abnormal bowel habits [3]: 121 (55) n (%) | Number of months a subject was a responder: One month (Abdominal pain/discomfort) [4]: 20 (13) n (%) | Number of months a subject was a responder: One month (Abnormal bowel habits) [4]: 24 (15) n (%) | Number of months a subject was a responder: One month (IBS symptoms) [4]: 25 (16) n (%) | Number of months a subject was a responder: Three months (Abdominal pain/discomfort) [4]: 62 (40) n (%) | Number of months a subject was a responder: Three months (Abnormal bowel habits) [4]: 61 (39) n (%) | Number of months a subject was a responder: Three months (IBS symptoms) [4]: 56 (36) n (%) | Number of months a subject was a responder: Two months (Abdominal pain/discomfort) [4]: 32 (21) n (%) | Number of months a subject was a responder: Two months (Abnormal bowel habits) [4]: 26 (17) n (%) | Number of months a subject was a responder: Two months (IBS symptoms) [4]: 31 (20) n (%) | Number of months a subject was a responder: Zero months (Abdominal pain/discomfort) [4]: 41 (26) n (%) | Number of months a subject was a responder: Zero months (Abnormal bowel habits) [4]: 44 (28) n (%) | Number of months a subject was a responder: Zero months (IBS symptoms) [4]: 43 (28) n (%) | Overall responder rate, adequate relief of IBS symptoms [4]: 82 (53) n (%) | Overall responder rate, adequate relief of abdominal pain/discomfort [4]: 90 (58) n (%) | Overall responder rate, adequate relief of abnormal bowel habits [4]: 82 (53) n (%) | Overall responder rate, IBS symptoms (Caucasians): 53% | Overall responder rate, abdominal pain/discomfort (Caucasians): 57% | Overall responder rate, abnormal bowel habits (Caucasians): 51% | Number of months a subject was a responder during the three-month treatment period: Abdominal pain/discomfort, One month [5]: 10 (14) n (%) | Number of months a subject was a responder during the three-month treatment period: Abdominal pain/discomfort, Three months [5]: 32 (44) n (%) | Number of months a subject was a responder during the three-month treatment period: Abdominal pain/discomfort, Two months [5]: 15 (21) n (%) | Number of months a subject was a responder during the three-month treatment period: Abdominal pain/discomfort, Zero months [5]: 15 (21) n (%) | Number of months a subject was a responder during the three-month treatment period: Abnormal bowel habits, One month [5]: 10 (14) n (%) | Number of months a subject was a responder during the three-month treatment period: Abnormal bowel habits, Three months [5]: 32 (44) n (%)
